Assay results taken from ChEMBL document CHEMBL1201862, “PubChem BioAssay data set” (2004).
Active and inactive are the calls of the source.

What was measured:
[1] = target: T1, Leucine aminopeptidase (Plasmodium falciparum 3D7, UniProt Q8IL11); experiment: P. falciparum M17LAP inhibitors, primary screen, biochemical, fluorogenic H-Leu-NHMec substrate, 1536-well (AID 1619); assay type: functional
T1 sequence (Q8IL11 whole entry): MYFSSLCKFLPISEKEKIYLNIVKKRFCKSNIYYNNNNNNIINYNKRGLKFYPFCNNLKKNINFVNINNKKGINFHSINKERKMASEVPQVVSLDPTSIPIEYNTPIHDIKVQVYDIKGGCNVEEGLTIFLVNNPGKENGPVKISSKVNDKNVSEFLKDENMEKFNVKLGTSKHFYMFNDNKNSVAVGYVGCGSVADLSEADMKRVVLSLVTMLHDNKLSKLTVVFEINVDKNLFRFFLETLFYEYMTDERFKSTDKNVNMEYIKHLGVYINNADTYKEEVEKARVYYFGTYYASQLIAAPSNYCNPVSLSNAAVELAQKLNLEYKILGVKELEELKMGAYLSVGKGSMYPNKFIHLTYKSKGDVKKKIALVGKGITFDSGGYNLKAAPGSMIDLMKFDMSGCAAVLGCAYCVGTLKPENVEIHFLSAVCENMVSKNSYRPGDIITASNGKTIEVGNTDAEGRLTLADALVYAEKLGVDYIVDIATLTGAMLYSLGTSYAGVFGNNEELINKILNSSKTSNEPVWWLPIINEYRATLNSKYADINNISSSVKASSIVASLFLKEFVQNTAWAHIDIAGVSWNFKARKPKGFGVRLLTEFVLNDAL

[2] = target: T2, Beta-lactamase (Pseudomonas aeruginosa, UniProt Q79MP6); experiment: inhibition of IMP-1 beta-lactamase activity – biochemical, epi-absorbance, selectivity assay for VIM-2 inhibitor project, dose response (AID 1920)
[3] = target: Beta-lactamase (Salmonella choleraesuis (strain SC-B67), UniProt Q5J463); experiment: Epi-absorbance-based counterscreen for selective VIM-2 inhibitors: dose response biochemical high throughput screening assay to identify inhibitors of TEM-1 serine-beta-lactamase.
[4] = target: T2, Beta-lactamase; experiment: […] counterscreen for selective VIM-2 inhibitors: dose response biochemical high throughput screening assay to identify inhibitors of IMP-1 metallo-beta-lactamase.
[5] = blockers of HIV-1 envelope-mediated cell-cell fusion – cherry-pick, dose response (AID 652057); assay type: functional, cell-based
[6] = off-target signal loss in HeLa-CEM21 co-culture – HeLa F-luc CTL cells, cherry-picked, counter-screen for HIV-1 Env fusion inhibitor project, dose response (AID 652040); assay type: functional, cell-based;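 also: potency for signal decrease marking cytotoxic or nonspecific inhibition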
[7] = blockers of HIV-1 ZM109 envelope-driven cell-cell fusion – HeLa effector, CEM target cells, luciferase, cherry-pick, dose response (AID 652058); assay type: functional, cell-based;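 also: luciferase signal from HIV-1 Env mediated cell-cell fusion of effector and target cells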
[8] = HIV-1 AD8 envelope cell-cell fusion blockers – cherry-pick, dose response (AID 652062); assay type: functional, cell-based;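 also: luciferase signal from cell-cell fusion driven by HIV-1 clade B AD8 Env; potency is for inhibitors of fusion seen as a drop in luminescence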
[9] = target: Induced myeloid leukemia cell differentiation protein Mcl-1 (Homo sapiens, UniProt Q07820); assay type: functional
[10] = target: T3, Carboxy-terminal domain RNA polymerase II polypeptide A small phosphatase 1 (Homo sapiens, UniProt Q9GZU7); experiment: CTDSP1 inhibitors, concentration-response, biochemical, absorbance readout, ultra-high-throughput screen actives (AID 540297); assay type: functional
T3 sequence (Q9GZU7 whole entry): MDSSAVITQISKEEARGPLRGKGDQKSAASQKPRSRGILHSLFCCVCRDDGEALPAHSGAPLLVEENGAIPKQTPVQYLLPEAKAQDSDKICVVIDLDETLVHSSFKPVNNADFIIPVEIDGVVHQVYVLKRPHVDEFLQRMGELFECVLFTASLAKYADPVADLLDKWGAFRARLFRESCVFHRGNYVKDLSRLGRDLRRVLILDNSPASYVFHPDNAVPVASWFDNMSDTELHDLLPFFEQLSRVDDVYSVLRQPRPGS

[11] = intracellular Trypanosoma cruzi inhibitors in host cells – cell-based, plate reader, cherry-pick samples, set 3, dose response (AID 651818); assay type: functional;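 also: compounds incubated with infected cells for about four days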
[12] = nonselective StAR promoter luciferase inhibitors – cell-based, luminescence, luciferase reporter, counter-screen for LRH-1 inverse agonist project, dose response (AID 651969); assay type: functional
[13] = target: Steroidogenic factor 1 (Homo sapiens, UniProt Q13285); experiment: Counterscreen for inverse agonists of the liver receptor homolog-1 (LRH-1; NR5A2): Luminescence-based cell-based high throughput dose response assay to identify inverse agonists of the Steroidogenic Factor 1 Nuclear Receptor (SF1; NR5A1).; assay type: functional
[14] = target: Nuclear receptor subfamily 5 group A member 2 (Homo sapiens, UniProt O00482); assay type: functional, cell-based;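 also: HEK293T cells transfected with LRH-1 and a StAR promoter luciferase reporter; potency for inhibitors that lower LRH-1 driven reporter light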
[15] = growth inhibition of yeast DHODH-expressing 3D7 parasites – SYBR Green, dry powder samples, dose response (AID 1159570); assay type: functional, cell-based;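 also: parasite growth measured after 72 hours of compound exposure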
[16] = P. falciparum Dd2 growth inhibitors, dose response, SYBR Green, cherry-picked samples (AID 1159567); assay type: functional, cell-based
[17] = growth inhibition of PfATP4-mutant resistant parasites – NITD609-resistant line, SYBR Green, dry powder, dose response (AID 1159571); assay type: functional, cell-based;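 also: parasites synchronized at ring stage by sorbitol before testing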
[18] = Dd2 malaria parasite growth inhibition potency – SYBR Green, dry powder samples, dose response (AID 1159566); assay type: functional, cell-based;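 also: potency for growth inhibition with lower SYBR green DNA signal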
[19] = toxicity to human HepG2 hepatoma cells – cell-based, plate reader, dry powder samples, cytotoxicity control, dose response (AID 1159569); assay type: functional;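 also: inhibitor potency with signal falling toward the positive control level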
[20] = target: T4, Endoribonuclease toxin MazF (Escherichia coli K-12, UniProt P0AE70); experiment: substrate-only fluorescence increase artefacts – biochemical, single-stranded RNase substrate, counter-screen for MazEF activator project, dose response (AID 588502); assay type: functional
T4 sequence (P0AE70 whole entry): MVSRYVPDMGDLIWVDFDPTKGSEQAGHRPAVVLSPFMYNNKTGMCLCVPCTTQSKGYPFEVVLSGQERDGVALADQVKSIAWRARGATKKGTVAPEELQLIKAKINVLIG

[21] = target: T4, Endoribonuclease toxin MazF; experiment: activation of MazEF endoribonuclease cleavage – biochemical, fluorescence, single-stranded RNA substrate, uHTS hits, dose response (AID 588481); assay type: functional
[22] = HEK-293T viability loss after treatment – luminescence, T-cell screen hits, cytotoxicity control for TCR NF-kB inhibitor project, dose response (AID 489026); assay type: functional, cell-based;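 also: cells exposed to compound about 14 hours before the viability readout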
[23] = tested on: BJ; experiment: cells; assay type: functional, cell-based; conditions: Homo sapiens
[24] = target: E3 ubiquitin-protein ligase Mdm2 (Homo sapiens, UniProt Q00987); experiment: MDM2-luc reporter signal enhancers, multi-concentration potency testing, MDM2 ubiquitin-protein ligase inhibitor program, whole-cell format, luminescence detection, 384-well microplate (AID 1394); assay type: functional;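 also: MDM2 E3 inhibitors raise luminescence so EC50 is for signal enhancement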
[25] = tested on: BJ; experiment: BJ-TERT fibroblast viability loss – cell-based, RAS-independent, luminescence, dose response (AID 1933); assay type: functional; conditions: Homo sapiens
[26] = tested on: BJ; experiment: BJ-TERT-LT-ST fibroblast viability loss – cell-based, RAS-independent, luminescence, dose response (AID 1935); assay type: functional; conditions: Homo sapiens;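 also: BJ fibroblasts immortalized with TERT plus LT and ST oncogenes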
[27] = DRD fibroblast viability loss – cell-based, non-viral oncogenic, luminescence, dose response (AID 1934); assay type: functional; conditions: Homo sapiens

Chain of Beta-lactamase (Salmonella choleraesuis (strain SC-B67), UniProt Q5J463) (Q5J463 whole entry): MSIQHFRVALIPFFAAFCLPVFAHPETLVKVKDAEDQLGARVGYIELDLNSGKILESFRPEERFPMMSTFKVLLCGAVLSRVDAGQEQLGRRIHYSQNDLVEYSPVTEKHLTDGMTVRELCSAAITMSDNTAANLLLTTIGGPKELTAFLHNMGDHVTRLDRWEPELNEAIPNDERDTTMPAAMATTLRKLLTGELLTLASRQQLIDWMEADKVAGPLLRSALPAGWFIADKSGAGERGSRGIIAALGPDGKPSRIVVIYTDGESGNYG
T2 sequence (Q79MP6 whole entry): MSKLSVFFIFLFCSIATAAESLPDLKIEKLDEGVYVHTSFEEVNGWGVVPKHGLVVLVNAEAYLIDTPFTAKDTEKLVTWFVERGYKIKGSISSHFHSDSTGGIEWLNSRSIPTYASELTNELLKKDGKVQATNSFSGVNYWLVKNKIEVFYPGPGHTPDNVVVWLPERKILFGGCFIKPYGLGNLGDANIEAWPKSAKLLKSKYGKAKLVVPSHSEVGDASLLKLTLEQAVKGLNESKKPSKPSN
Chain of E3 ubiquitin-protein ligase Mdm2 (Q00987 whole entry): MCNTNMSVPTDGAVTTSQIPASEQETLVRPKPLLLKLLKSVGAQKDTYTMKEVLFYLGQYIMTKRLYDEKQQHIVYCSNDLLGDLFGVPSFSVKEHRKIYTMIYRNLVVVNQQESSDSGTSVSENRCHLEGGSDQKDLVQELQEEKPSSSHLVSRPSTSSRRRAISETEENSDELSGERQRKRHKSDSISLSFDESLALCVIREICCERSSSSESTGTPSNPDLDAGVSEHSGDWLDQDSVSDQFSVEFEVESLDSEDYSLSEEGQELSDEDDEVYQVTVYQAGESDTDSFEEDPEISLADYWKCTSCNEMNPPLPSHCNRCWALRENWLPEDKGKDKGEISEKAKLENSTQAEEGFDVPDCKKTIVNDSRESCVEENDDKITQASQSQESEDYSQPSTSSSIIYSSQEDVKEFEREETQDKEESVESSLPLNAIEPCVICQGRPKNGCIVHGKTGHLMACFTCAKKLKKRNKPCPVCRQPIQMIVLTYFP
Chain of Induced myeloid leukemia cell differentiation protein Mcl-1 (Q07820 whole entry, the tested form may be a part): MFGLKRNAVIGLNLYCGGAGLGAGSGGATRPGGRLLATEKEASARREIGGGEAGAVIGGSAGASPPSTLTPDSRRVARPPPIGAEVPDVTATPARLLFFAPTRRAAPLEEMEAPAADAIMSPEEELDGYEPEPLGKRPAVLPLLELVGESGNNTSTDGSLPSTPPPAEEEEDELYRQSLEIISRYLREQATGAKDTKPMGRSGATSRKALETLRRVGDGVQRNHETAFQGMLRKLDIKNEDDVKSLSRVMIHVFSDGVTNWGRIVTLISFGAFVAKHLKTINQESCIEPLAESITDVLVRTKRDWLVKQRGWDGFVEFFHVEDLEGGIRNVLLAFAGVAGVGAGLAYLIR
Chain of Steroidogenic factor 1 (Q13285 whole entry): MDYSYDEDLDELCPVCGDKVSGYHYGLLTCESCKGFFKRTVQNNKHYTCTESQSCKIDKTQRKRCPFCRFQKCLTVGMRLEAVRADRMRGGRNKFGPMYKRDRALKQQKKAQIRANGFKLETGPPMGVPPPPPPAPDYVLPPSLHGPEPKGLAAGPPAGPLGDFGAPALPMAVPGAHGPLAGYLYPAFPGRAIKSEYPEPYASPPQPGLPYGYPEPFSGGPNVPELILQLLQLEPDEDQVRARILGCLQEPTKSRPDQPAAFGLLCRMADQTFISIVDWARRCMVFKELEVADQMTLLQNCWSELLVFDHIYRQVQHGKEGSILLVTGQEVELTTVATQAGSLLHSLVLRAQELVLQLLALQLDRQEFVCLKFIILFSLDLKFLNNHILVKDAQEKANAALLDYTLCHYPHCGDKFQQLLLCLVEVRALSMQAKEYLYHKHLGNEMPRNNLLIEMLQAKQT
Chain of Nuclear receptor subfamily 5 group A member 2 (O00482 whole entry): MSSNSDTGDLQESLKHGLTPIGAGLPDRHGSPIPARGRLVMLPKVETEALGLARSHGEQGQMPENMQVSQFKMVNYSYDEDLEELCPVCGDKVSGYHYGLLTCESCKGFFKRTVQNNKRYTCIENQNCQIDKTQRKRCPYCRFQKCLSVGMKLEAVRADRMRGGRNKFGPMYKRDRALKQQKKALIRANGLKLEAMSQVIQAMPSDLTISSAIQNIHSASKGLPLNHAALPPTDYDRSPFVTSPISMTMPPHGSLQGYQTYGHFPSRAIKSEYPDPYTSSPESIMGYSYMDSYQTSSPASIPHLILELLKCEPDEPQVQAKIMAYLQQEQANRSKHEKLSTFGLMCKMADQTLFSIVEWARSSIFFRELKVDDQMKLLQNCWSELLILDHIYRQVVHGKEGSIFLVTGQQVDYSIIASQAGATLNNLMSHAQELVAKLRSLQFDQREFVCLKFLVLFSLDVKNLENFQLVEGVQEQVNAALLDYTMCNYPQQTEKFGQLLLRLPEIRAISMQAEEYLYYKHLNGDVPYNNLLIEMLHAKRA

Cc1cccc(NC(=O)CSc2nnc(NC(=O)CN3CCOCC3)s2)c1
IC50 [1]: 14 µM (active)

O=C(CCN1C(=O)/C(=C/c2ccccc2F)SC1=S)NCCCn1ccnc1
IC50 [2]: > 59.6 µM (inactive) | IC50 [3]: > 59.6 µM (inactive) | IC50 [4]: > 19.9 µM (inactive)

CCOc1c(C)cnc2c1c(=O)n(Cc1ccc(Cl)cc1)c(=O)n2C
AC50 [5]: 7.77 µM (active) | AC50 [6]: 12.5 µM (active) | AC50 [7]: 12.1 µM (active) | AC50 [8]: 8.07 µM (active)

CCC1(C(=O)OC)CCc2c(cc(OC)c3ccccc23)C1=O (stereo unspecified)
IC50 [9]: > 54 µM (not active)

O=c1/c(=C/c2ccc(O)c([N+](=O)[O-])c2)sc2nc3ccccc3n12
IC50 [9]: 3.94 µM (active) | IC50 [10]: 1.83 µM (active)

Cc1cccc(C2c3[nH]c4ccccc4c3CCN2C(=O)c2cc(CC(C)C)nc(=O)[nH]2)n1 (stereo unspecified)
IC50 [2]: > 59.6 µM (inactive) | IC50 [3]: > 59.6 µM (inactive) | IC50 [4]: > 59.6 µM (inactive)

C[C@H](CO)N1C[C@H](C)[C@H](CN(C)Cc2ccc(C(F)(F)F)cc2)Oc2ccc(NC(=O)Nc3ccc(F)cc3)cc2CC1=O
AC50 [11]: 2.19 µM (active)

Cc1ccc(C)c(NC(=O)CSc2nc(O)c3c[nH]nc3n2)c1
IC50 [12]: 35.9 µM (inactive) | IC50 [13]: 6.65 µM (active) | IC50 [14]: 29 µM (inactive)

COc1ccccc1-c1cccc(-c2nc(C(=O)Nc3nccs3)cc3c2[C@H](CCO)N(C(C)=O)C3)c1
AC50 [15]: 3.93 µM (active) | AC50 [16]: 2.15 µM (active) | AC50 [17]: 1.96 µM (active) | AC50 [18]: 2.08 µM (active) | AC50 [19]: 66.8 µM (active)

COC(=O)c1c(/N=C/N(C)C)sc2c1CCN(c1ncc(C(F)(F)F)cc1Cl)C2
EC50 [20]: > 99 µM (inactive) | EC50 [21]: > 99 µM (inactive)

Cn1c(-c2sccc2OCc2ccc(Cl)cc2Cl)n[nH]c1=S
IC50 [2]: > 59.6 µM (inactive) | IC50 [3]: > 59.6 µM (inactive) | IC50 [4]: > 59.6 µM (inactive)

C[C@@H]1CN([C@H](C)CO)C(=O)c2cccc(NC(=O)CCCCCC(=O)Nc3ccccc3N)c2O[C@H]1CN(C)CC1CC1
AC50 [11]: 3.12 µM (active)

CCSc1nc2ccccc2n1C(=O)/C=C\c1ccc(OC)c(OC)c1
IC50 [22]: > 80 µM (inactive) | EC50 [23]: 8.04 µM (active) | EC50 [24]: 0.24 µM (active) | EC50 [25]: 4.41 µM (inconclusive) | EC50 [26]: 5.15 µM (inconclusive) | EC50 [27]: 4.6 µM (inconclusive)

Cc1cccc(Nc2nnc(SCC3CCCCO3)s2)c1C (stereo unspecified)
EC50 [24]: 12.4 µM (not active)
